Assay results: patent publication US9808461B2, “Protection of renal tissues from ischemia through inhibition of the proliferative kinases CDK4 and CDK6” (The University of North Carolina at Chapel Hill, priority 2010, dated 2017)
Entries after “also recorded” stand apart in the source; their conditions may differ.

Tests used:
[1] = system: primary human renal proximal tubule epithelial cells; assay: Cell cycle analysis (propidium iodide staining, flow cytometry); format: cell-based; conditions: 0, 10 nM, 30 nM, 100 nM, 300 nM or 1 μM for 16 hours
Procedure: Representative histograms of cell cycle analysis of primary human renal proximal tubule epithelial cells treated with varying concentrations (0 nM, 10 nM, 30 nM, 100 nM, 300 nM, or 1 μM) of 6-acetyl-8-cyclopentyl-5-methyl-2-(5-piperazin-1-yl-pyridin-2-ylamino)-8H-pyrido-[2,3-d]pyrimidin-7-one (PD0332991) for 16 hours. Cells were harvested, fixed, stained, and analyzed by flow cytometry. Data was fitted using Mod-Fit™ software from Verity (Verity Software House, Topsham, Me., United States of America). […] Cell cycle analysis of primary human renal proximal tubule epithelial cells treated with varying concentrations (0 nM, 10 nM, 30 nM, 100 nM, 300 nM, or 1 μM) of 6-acetyl-8-cyclopentyl-5-methyl-2-(5-piperazin-1-yl-pyridin-2-ylamino)-8H-pyrido-[2,3-d]pyrimidin-7-one (PD0332991) for 16 hours. Cells were harvested, fixed, stained, and analyzed by flow cytometry. Data was fitted using Mod-Fit™ software from Verity (Verity Software House, Topsham, Me., United States of America). […] Samples were processed and the DNA was stained with propidium iodide (PI) solution and analyzed by flow cytometry. FCS files from flow cytometer were further analyzed using cell cycle analysis software ModFit™ from Verity (Verity Software House, Topsham, Me., United States of America), where cell cycle fractions were calculated as a percentage of the whole population.

[2] = system: primary human renal proximal tubule epithelial cells; assay: Cell proliferation, CellTiter-Glo; format: cell-based; conditions: 10 nM to 3 μM, 72 hours post treatment
Procedure: Cells were treated with varying concentrations (0 nM, 10 nM, 30 nM, 100 nM, 300 nM, or 1 μM) of 6-acetyl-8-cyclopentyl-5-methyl-2-(5-piperazin-1-yl-pyridin-2-ylamino)-8H-pyrido-[2,3-d]pyrimidin-7-one (PD0332991) for 72 hours. Following incubation, cell proliferation was quantified using CellTiter-Glo® (Promega, Madison, Wis., United States of America). Data represent the mean of four replicates (relative light units, RLU)+/−standard deviation. Inhibition of CDK4/6 blocks the proliferation of normal human primary renal proximal tubule epithelial cells. These cells were seeded at an appropriate density in 96 well plates and incubated for 24 hours at 37° C. in a humidified incubator at 5% CO2. Cells were then exposed to a potent and selective CDK4/6 inhibitor, in this case PD0332991, across a broad dose range 24 hours later. The dose range explored is 0, 10 nM, 30 nM, 100 nM, 300 nM, 1 μM or 3 μM PD0332991. Seventy-two hours post exposure, the CDK4/6 inhibited cells were treated with CellTiter-Glo® (Promega, Madison, Wis., United States of America) using manufacturer's specifications. The plate was read in luminometer at 1 second/well. Results were placed in Microsoft Excel and analyzed.

[3] = Serum creatinine after bilateral ischemia reperfusion injury; format: in vivo, mice; conditions: 150 mg/kg oral gavage 1 hour prior to bilateral IRI; N=9; vehicle group 2.27
Procedure: PD0332991 was dissolved in 50 mM sodium lactate buffer (pH 4.0) to a final concentration of 15 mg/mL. Mice were treated with a 150 mg/kg dose of PD0332991, or vehicle, 1 hour prior to ischemia reperfusion surgery by oral gavage. 8 week old male mice were anesthetized with pentobarbital sodium (60 mg/kg body weight, intraperitoneally) prior to surgery. Body temperatures were controlled at 36.5° C.-37.5° C. throughout the procedure. Bilateral flank incisions into the peritoneum allowed access to both kidneys. Kidneys were exposed and ischemia was induced by simultaneously clamping the renal pedicle of both kidneys with nontraumatic microaneurysm clamps (Roboz, Rockville, Md.). Clamped kidneys were placed back into the peritoneal cavity for 28 minutes, and clamps were then removed resulting in reperfusion injury. The flank incisions were closed with wound clips and the mice were allowed to recover in their home cages. […] Serum creatinine was measured by the Beckman Creatinine Analyzer 2, which utilizes a 10 mM picric acid solution mixed with a buffer containing 10 mM sodium borate, 240 mM sodium hydroxide, and 10 mM sodium dodecyl sulfate (SDS). Serum creatinine is measured against a creatinine standard and recorded as milligrams per deciliter.

renal epithelial cells = assay: BrdU incorporation into renal epithelial cells after ischemia reperfusion injury; format: in vivo, mice
Procedure: FIG. 3A is a schematic diagram showing a dosing schedule for studies of 5-bromo-2-deoxyuridine (BrdU) incorporation into epithelial cells following ischemic reperfusion injury after a single dosing of a CDK4/6 inhibitor. Mice were treated with 6-acetyl-8-cyclopentyl-5-methyl-2-(5-piperazin-1-yl-pyridin-2-ylamino)-8H-pyrido-[2,3-d]pyrimidin-7-one (PD0332991; 150 mg/kg) or vehicle (sodium lactate buffer) by oral gavage one hour before ischemic reperfusion injury. BrdU (100 mg/kg) was administered via i.p. injection 21 hours after injury. Mice were sacrificed 3 hours after the BrdU injection, and BrdU incorporation into the renal epithelial cells was quantified. […] Three hours following the second injection of BrdU, the mice were sacrificed and BrdU incorporation into the renal epithelial cells was quantified. […] Kidney cell proliferation following ischemia reperfusion injury (IRI) was monitored (based on BrdU incorporation in renal epithelial cells) following a one time, pre-IRI PD0332991 or vehicle (sodium lactate buffer) dosing as shown in FIG. 3A and following a two time (once pre-IRI and once post-IRI) PD0332991 or vehicle dosing as shown in FIG. 3B. […] BrdU positive (BrdU(+)) cells were quantified visually by counting the number of BrdU(+) cells in a field of kidney epithelial cells under magnification. […]

## CC(=O)c1c(C)c2cnc(Nc3ccc(N4CCNCC4)cn3)nc2n(C2CCCC2)c1=O [PD0332991, 6-acetyl-8-cyclopentyl-5-methyl-2-(5-piperazin-1-yl-pyridin-2-ylamino)-8H-pyrido-[2,3-d]-pyrimidin-7-one]
[1]
  G1 cell cycle arrest: induces a G1 arrest; also recorded: “clean” G1-arrest without evidence of cytotoxicity
  cell cycle fractions (G0/G1, G2/M, S-phase): dose dependent increase in the G0/G1 fraction of the cell cycle was observed with a consummate decrease in both G2/M and S-phase fractions
[2]
  cell proliferation (relative light units) compared to DMSO control: clear dose dependent inhibition of cell proliferation; also recorded: blocks proliferation
[3]
  average serum creatinine 24 hours after surgery: 1.74 mg/dL
Renal epithelial cells; 150 mg/kg oral gavage one time, 1 hour before IRI (FIG. 3A schedule)
  BrdU(+) renal epithelial cells 24 hours after injury, versus vehicle: significantly less BrdU(+) cells; also recorded: prevents epithelial cells from entering S-phase
Renal epithelial cells; 150 mg/kg oral gavage two doses, once pre-IRI and once post-IRI (FIG. 3B schedule)
  BrdU incorporation in renal epithelial cells 48 hours after injury, versus vehicle: less BrdU incorporation; also recorded: prevents epithelial cells from entering S-phase
